Assay results reported in PubChem BioAssay (NCI).
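Protocol summary: plate cells (96-well), add compound at 5 concentrations, incubate 48 h, interpolate endpoints linearly. At the TGI there is no net growth.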

Assays:
Experiment in all cases: NCI tumour cell line growth inhibition, 48 h
[1] = tested on: BT-549 breast
[2] = tested on: HS 578T breast
[3] = tested on: MDA-MB-231 breast
[4] = tested on: HOP-18 NSCLC
[5] = tested on: NCI-H226 lung
[6] = tested on: SR leukemia

Measured: TGI

COc1cc2c3c(c4cc(OC)c(OC)cc4c2cc1OC)C(=O)C1CCC(=O)N1C3 (stereo unspecified)
> 100 µM: [1] | [2] | [3]

Cc1cccc(C(C)C)c1NC(=O)CC1Sc2ccccc2NC1=O (stereo unspecified)
> 100 µM: [4] | [5] | [6]
